Measurements as given in US6677357B2, “Rapamycin 29-enols” (Wyeth, priority 2001, dated 2004).
Values after ≈ are worked out from the molar mass of the structure shown.

What was measured:
Type in all cases: cell-based
SKBR3 (breast) = assay: Antineoplastic activity, tumor cell growth inhibition (sulforhodamine B), SKBR3; conditions: 48 hours; for Antineoplastic Activity (IC50): SKBR3 cells; for IC50: Homo sapiens, SK-BR-3, SKBR3 cells
From the text: (§1) Antineoplastic activity for the compounds of this invention was confirmed by evaluating the antineoplastic activity of representative compounds of this invention (Examples 1-5) against six tumor cell lines in vitro. Briefly, tumor cells from six cell lines were placed in wells of a 96 well microtiter plate. The following tumor cell lines were used: 3T3 (ovarian), 3T3/H2N (ovarian—resistant to cis-platin), A431 (vulva epidermoid origin), SW620 (colon), SKBR3 (breast), and MDA-435 (breast). The tumors cells were grown in the presence of serial dilutions of the compound to be evaluated for 48 hours, and cell growth determined using a calorimetric procedure (sulforhrodamine B). The inhibition of growth was calculated compared to the number of cells at the time of test compound addition.

[1] = tested on: A431 (vulva epidermoid origin); assay: Antineoplastic activity, tumor cell growth inhibition (sulforhodamine B), A431; conditions: 48 hours; for Antineoplastic Activity (IC50): A431 cells; for IC50: Homo sapiens, A-431, A431 cells
From the text: as §1

3T3 (ovarian) = assay: Antineoplastic activity, tumor cell growth inhibition (sulforhodamine B), 3T3; conditions: 48 hours; for Antineoplastic Activity (IC50): 3T3 cells; for IC50: Mus musculus, NIH3T3, 3T3 cells
From the text: as §1

MDA-435 (breast) = assay: Antineoplastic activity, tumor cell growth inhibition (sulforhodamine B), MDA-435; conditions: MDA435 cells, 48 hours
From the text: as §1

[2] = tested on: 3T3/H2N (ovarian—resistant to cis-platin); assay: Antineoplastic activity, tumor cell growth inhibition (sulforhodamine B), 3T3/H2N; conditions: 3T3/H2N cells, 48 hours
From the text: as §1

SW620 (colon) = assay: Antineoplastic activity, tumor cell growth inhibition (sulforhodamine B), SW620; conditions: 48 hours; for Antineoplastic Activity (IC50): SW620 cells; for IC50: Homo sapiens, SW-620, SW620 cells
From the text: as §1

SH-SY5Y cells = assay: Neurite outgrowth (neuroregeneration) test procedure in SH-SY5Y cells; conditions: SH-SY5Y cells pretreated with aphidicolin 5 days, mean ± SEM
From the text: The neuroregeneration activity for the compounds of this invention was confirmed in a standard pharmacological test procedure by evaluating rapamycin dialdehyde (Example 1) and rapamycin 29-enol (Example 2), as representative compounds of this invention, against SH-SY5Y cells in vitro [Gold et al., Exp Neurol 147:269-278, 1997]. Briefly, SH-SY5Y cells were placed in 6-well plate treated with aphidicolin for 5 days followed by the test compounds using 6-well plates. For controls, wells were untreated, or treated with nerve growth factor (NGF) alone. Test wells were treated with NGF plus Example 1 and Example 2, or rapamycin. Cells were photographed at 168 hours. Analysis of neuritic lengths was performed on photographic prints using a Houston Instrument HI-PAD digitizing tablet connected to an IBM XT computer with appropriate software (Bioquant IV, R&M Biometrics, Nashville, Tenn.). Mean values for axonal areas were compared using by ANOVA (STATVIEW, Abacus Concepts, Inc., Berkeley, Calif.). The following table summarizes the results that were obtained.

Row | Compound | Antineoplastic Activity (IC50) (SKBR3 (breast)) [µg/mL] | Antineoplastic Activity (IC50) [1] [µg/mL] | Antineoplastic Activity (IC50) (3T3 (ovarian)) [µg/mL] | Antineoplastic Activity (IC50) (MDA-435 (breast)) [µg/mL] | Antineoplastic Activity (IC50) [2] [µg/mL] | Antineoplastic Activity (IC50) (SW620 (colon)) [µg/mL] | Mean Neurite Length after 168 h (SH-SY5Y cells; test compound + NGF) | further results
1 | 42-O-(2-Hydroxy)ethyl rapamycin 29-enol [V] | 2.69 | >5 | >5 | >5 | 4.96 | >5 | – | –
2 | 42-O-(2-Hydroxy)ethyl rapamycin dialdehyde [IV] | 0.36 | 2.64 | 1.5 | 1.1 | 0.72 | 3.04 | – | –
3 | CO[C@@H](C[C@@H]1CC[C@@H](C)[C@](O)(C(=O)C(=O)N2CCCC[C@H]2C(=O)O[C@@H](CC(=O)[C@H](C)/C=C(\C)[C@@H](O)[C@@H](OC)C(=O)[C@H](C)C[C@H](C)/C=C/C=O)[C@H](C)CC2CC[C@@H](O)[C@H](OC)C2)O1)/C(C)=C/C=O (stereo partly shown) [Example I, Rapamycin Dialdehyde] | – | – | – | – | – | – | 229.8 ± 9.5 (n = 141) μm | IC50 (SKBR3 (breast)): 0.52 µg/mL (≈ 0.55 µM); IC50 [1]: 0.91 µg/mL (≈ 0.962 µM); IC50 (3T3 (ovarian)): 0.72 µg/mL (≈ 0.761 µM); IC50 (MDA-435 (breast)): 1.23 µg/mL (≈ 1.3 µM); IC50 [2]: 0.68 µg/mL (≈ 0.719 µM); IC50 (SW620 (colon)): 1.41 µg/mL (≈ 1.49 µM)
4 | CO[C@@H]1[C@H](O)C2(C)OOC1([C@H](C)C[C@H](C)/C=C/C=O)O2 (stereo partly drawn) [III, (2E,4S,6R)-6-[(5S,6R)-5-Hydroxy-6-methoxy-4-methyl-2,3,7-trioxabicyclo[2.2.1]hept-1-yl]-4-methylhept-2-enal] | – | – | – | – | – | – | – | IC50 (SKBR3 (breast)): 2.05 µg/mL (≈ 7.16 µM); IC50 [1]: 3.01 µg/mL (≈ 10.5 µM); IC50 (3T3 (ovarian)): 4.11 µg/mL (≈ 14.4 µM); IC50 (MDA-435 (breast)): 4.13 µg/mL (≈ 14.4 µM); IC50 [2]: > 5 µg/mL; IC50 (SW620 (colon)): > 5 µg/mL
5 | CO[C@H]1C[C@@H]2CC[C@@H](C)[C@@](O)(O2)C(=O)C(=O)N2CCCC[C@H]2C(=O)O[C@H]([C@H](C)C[C@@H]2CC[C@@H](O)[C@H](OC)C2)CC(=O)[C@H](C)/C=C(\C)[C@@H](O)[C@@H](OC)C(=O)[C@H](C)C[C@H](C)/C=C/C=C/C=C/1C [Rapamycin] | – | – | – | – | – | – | 261.4 ± 13.1 (n = 119) μm | –
6 | NGF: nerve growth factor (NGF), used alone as control and together with test compounds | – | – | – | – | – | – | – | Mean Neurite Length after 168 h (SH-SY5Y cells; NGF alone): 196.5 ± 7.7 (n = 112) μm
7 | Rapamycin 29-enol [Example II] | >5 | >5 | >5 | >5 | >5 | >5 | 239.7 ± 10.0 (n = 155) μm | –
